One data set relates to SARS-CoV-2. The data set is classed as cell-based.
The test system of a further data set is E. coli WP2 uvrA strain. The data set can be described thus: Microbial mutagenicity assay (Ames test). A general note: The Ames test detects mutagens through reverse mutation in bacteria.
Another data set deals with T1, CYP2B6 (Homo sapiens, UniProt P20813).
T1 construct: purchased Thermo Fisher Scientific; host or cells: Baculosomes
T1 sequence (P20813 1-491): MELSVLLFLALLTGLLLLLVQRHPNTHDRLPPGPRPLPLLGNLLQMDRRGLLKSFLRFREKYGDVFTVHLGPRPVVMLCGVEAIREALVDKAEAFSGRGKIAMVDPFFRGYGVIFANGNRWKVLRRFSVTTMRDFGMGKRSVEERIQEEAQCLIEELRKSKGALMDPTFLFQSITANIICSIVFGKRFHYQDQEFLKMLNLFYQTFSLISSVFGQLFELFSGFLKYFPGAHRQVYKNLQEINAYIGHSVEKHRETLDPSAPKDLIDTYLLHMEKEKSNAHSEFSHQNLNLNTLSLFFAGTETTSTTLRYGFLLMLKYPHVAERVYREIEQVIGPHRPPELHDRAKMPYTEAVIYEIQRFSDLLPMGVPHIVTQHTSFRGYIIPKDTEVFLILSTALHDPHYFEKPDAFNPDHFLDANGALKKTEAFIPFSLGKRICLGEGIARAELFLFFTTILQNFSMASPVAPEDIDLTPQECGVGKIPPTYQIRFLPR
The data set can be described thus: Isozyme-specific CYP450 inhibition. The format is in vitro ADME. Conditions: recombinant human CYP2B6 with CYP450 reductase (Baculosomes), probe fluorescent substrate (not named). On the procedure: (§1) For this, the activity of CYP1A2, CYP2A6, CYP2B6, CYP2C9, CYP2C19, CYP2D6, and CYP3A4 was assessed after the administration of CKP-25 at 1 μM to determine (a) the oxidative (CYP-mediated) metabolic stability profile in question and (b) the enzyme metabolizing isoforms responsible (the test system consists of recombinant human CYP450 and CYP450 reductase; cytochrome b5 may also be present). Herein, no concentration-dependent effects were reported. […] No product inhibition or mechanism-based inactivation of the CYP450 isoenzymes in question was obtained. Test-compounds with poor solubility can show artificially low CYP450 inhibition and thus, chemical entities with potential drug–drug interaction toxicities may be overlooked.
(§2) Human cytochrome P450 (CYP450) isoenzymes were expressed in Baculosomes obtained from Thermo Fisher Scientific (Waltham, MA, USA). Reagents were handled and prepared following the manufacturer’s guidelines. Compound CKP-25 was evaluated at a concentration of 1 μM according to our established standard operating procedures and protocols as described previously.[127],[128] The enzymatic activity of various CYP450 isoforms (CYP1A2, CYP2A6, CYP2B6, CYP2C9, CYP2C19, CYP2D6, and CYP3A4) was measured, considering the kinetic model for each isoform. The reactions were conducted in triplicate at 20 °C. NADP+ (10 mM in 100 mM potassium phosphate, pH 8.0) was converted to NADPH using a regeneration system containing glucose-6-phosphate (333 mM) and glucose-6-phosphate dehydrogenase (30 U/mL in 100 mM potassium phosphate, pH 8.0). Upon the addition of the fluorescent substrate, signal monitoring was performed immediately (within 2 min) using appropriate excitation and emission wavelengths, recorded by an Agilent BioTek Lionheart FX (Winooski, VT, USA). CYP450 inhibition (%) was calculated based on the reaction rates (fluorescence intensity changes per unit time). In total, n = 60 meaurements per minute were recorded over a 60 min period. [drawing 2] where X, the rate observed in the presence of a test-compound; A, the rate observed in the presence of negative (solvent, DMSO) control.

The next data set deals with T2, CYP2C9 (Homo sapiens, UniProt P11712).
T2 construct: purchased Thermo Fisher Scientific; host or cells: Baculosomes
The experiment in a line: Isozyme-specific CYP450 inhibition. The format is in vitro ADME. Conditions: recombinant human CYP2C9 with CYP450 reductase (Baculosomes), probe fluorescent substrate (not named). On the procedure:
as §1, §2

A further data set has as its target T3, CYP2A6 (Homo sapiens, UniProt P11509).
T3 construct: purchased Thermo Fisher Scientific; host or cells: Baculosomes
T3 sequence (P11509 1-494): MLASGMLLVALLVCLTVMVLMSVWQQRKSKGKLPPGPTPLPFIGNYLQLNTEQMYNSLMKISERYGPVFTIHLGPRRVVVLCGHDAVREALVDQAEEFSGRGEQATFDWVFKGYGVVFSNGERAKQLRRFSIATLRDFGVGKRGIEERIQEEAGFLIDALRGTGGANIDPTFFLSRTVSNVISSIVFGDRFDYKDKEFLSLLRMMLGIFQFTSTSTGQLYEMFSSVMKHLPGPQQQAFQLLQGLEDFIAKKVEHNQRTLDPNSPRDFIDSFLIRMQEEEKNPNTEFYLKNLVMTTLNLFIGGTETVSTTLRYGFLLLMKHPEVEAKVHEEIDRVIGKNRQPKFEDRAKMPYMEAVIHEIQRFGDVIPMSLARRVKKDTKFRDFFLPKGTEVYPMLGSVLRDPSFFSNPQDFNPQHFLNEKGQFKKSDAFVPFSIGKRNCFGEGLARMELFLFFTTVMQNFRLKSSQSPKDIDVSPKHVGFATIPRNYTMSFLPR
The experiment in a line: Isozyme-specific CYP450 inhibition. The data set is classed as in vitro ADME. Conditions: recombinant human CYP2A6 with CYP450 reductase (Baculosomes), probe fluorescent substrate (not named). On the procedure: as §1, §2

Another data set has as its target T4, CYP2C19 (Homo sapiens, UniProt P33261).
T4 construct: purchased Thermo Fisher Scientific; host or cells: Baculosomes
The experiment in a line: Isozyme-specific CYP450 inhibition. The format is in vitro ADME. Conditions: probe fluorescent substrate (not named). On the procedure: as §1, §2

The target in a further data set is T5, CYP3A4 (Homo sapiens, UniProt P08684).
T5 construct: purchased Thermo Fisher Scientific; host or cells: Baculosomes
The data set can be described thus: Isozyme-specific CYP450 inhibition. The data set is classed as in vitro ADME. To be noted: recombinant human CYP3A4 with CYP450 reductase (Baculosomes), probe fluorescent substrate (not named). On the procedure: as §1, §2

Each structure is given as a SMILES string. “Also recorded” adds a separate entry of the source.

T4 sequence (P33261 whole entry): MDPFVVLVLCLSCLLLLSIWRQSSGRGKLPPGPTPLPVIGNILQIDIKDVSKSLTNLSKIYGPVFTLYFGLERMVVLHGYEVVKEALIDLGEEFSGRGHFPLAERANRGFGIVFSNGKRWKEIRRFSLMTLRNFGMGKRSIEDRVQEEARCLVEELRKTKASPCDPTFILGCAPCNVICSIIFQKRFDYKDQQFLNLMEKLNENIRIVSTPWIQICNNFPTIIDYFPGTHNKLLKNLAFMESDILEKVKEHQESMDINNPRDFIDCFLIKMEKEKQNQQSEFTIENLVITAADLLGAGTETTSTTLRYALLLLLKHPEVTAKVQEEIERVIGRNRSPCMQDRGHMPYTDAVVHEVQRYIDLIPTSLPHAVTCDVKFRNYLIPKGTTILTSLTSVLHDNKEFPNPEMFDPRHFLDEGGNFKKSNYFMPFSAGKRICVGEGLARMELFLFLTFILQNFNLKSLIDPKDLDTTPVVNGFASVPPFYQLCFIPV
T5 sequence (P08684 2-503 limits assumed): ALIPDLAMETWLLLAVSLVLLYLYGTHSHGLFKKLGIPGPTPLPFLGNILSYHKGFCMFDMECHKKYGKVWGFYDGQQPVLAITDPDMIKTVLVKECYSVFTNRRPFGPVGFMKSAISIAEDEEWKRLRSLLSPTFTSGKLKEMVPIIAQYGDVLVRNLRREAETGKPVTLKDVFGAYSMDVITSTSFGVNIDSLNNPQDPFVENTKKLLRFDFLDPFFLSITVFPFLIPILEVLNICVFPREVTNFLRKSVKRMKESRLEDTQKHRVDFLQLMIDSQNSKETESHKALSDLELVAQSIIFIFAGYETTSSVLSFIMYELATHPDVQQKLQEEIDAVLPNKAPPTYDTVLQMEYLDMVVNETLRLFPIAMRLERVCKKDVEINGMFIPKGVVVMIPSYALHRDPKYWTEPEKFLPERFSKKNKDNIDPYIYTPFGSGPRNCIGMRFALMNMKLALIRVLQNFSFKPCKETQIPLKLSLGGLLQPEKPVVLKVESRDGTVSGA
T2 sequence (P11712 whole entry): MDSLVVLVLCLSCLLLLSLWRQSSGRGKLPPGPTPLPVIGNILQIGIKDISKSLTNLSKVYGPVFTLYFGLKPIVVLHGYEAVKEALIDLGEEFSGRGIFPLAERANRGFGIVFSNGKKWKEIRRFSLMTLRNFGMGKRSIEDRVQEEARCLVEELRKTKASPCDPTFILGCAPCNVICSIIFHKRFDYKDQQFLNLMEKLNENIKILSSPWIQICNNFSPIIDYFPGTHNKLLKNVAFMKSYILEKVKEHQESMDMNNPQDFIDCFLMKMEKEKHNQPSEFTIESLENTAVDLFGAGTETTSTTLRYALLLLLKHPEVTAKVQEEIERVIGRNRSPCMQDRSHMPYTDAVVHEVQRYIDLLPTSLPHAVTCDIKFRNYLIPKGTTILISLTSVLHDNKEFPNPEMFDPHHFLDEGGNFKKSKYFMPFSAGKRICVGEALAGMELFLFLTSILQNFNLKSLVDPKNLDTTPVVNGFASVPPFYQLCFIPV

What is called inhibition is the change of the read-out against control, counted positive when it falls. Turning to `COc1cccc2c1ncn2Cc1ccc2ccccc2c1` [CKP-25, 4-Methoxy-1-(naphthalen-2-ylmethyl)-1H-benzo[d]imidazole], the “reduction of the viral titter (TCID50)” value in the data set on SARS-CoV-2 was “approximately 90%”. Besides, the mean revertants was 13 in the data set with E. coli WP2 uvrA strain (2.5 μg/plate, +S9); 7.5 with E. coli WP2 uvrA strain (2.5 μg/plate, –S9); 19 with E. coli WP2 uvrA strain (25 μg/plate, +S9); 12.5 with E. coli WP2 uvrA strain (25 μg/plate, –S9); 15 with E. coli WP2 uvrA strain (50 μg/plate, +S9); 13 in the data set with E. coli WP2 uvrA strain (50 μg/plate, –S9). Besides, the mean revertants in the data set on E. coli WP2 uvrA strain (100 μg/plate, +S9) turned out to be 13; with E. coli WP2 uvrA strain (100 μg/plate, –S9) it was 11.5; in the data set with E. coli WP2 uvrA strain (200 μg/plate, +S9) it was 16; with E. coli WP2 uvrA strain (200 μg/plate, –S9) it was 5.5. Further, the “mutagenic activity (in words)” value in the data set on E. coli WP2 uvrA strain (12.5 to 200 μg/plate, with and without S9-mix) was “does not elicit mutagenic effect; also recorded: does not exhibit mutagenic activity”. For the same compound, the inhibition at 60 min, 1 µM is 0% at CYP2B6; 11% on CYP2C9; 6% on CYP2A6; 20% against CYP2C19; 3% on CYP3A4.

The values above are taken from publication PMC11600510 (Journal of Chemical Information and Modeling, 2024).
